Test [1] has as its system ribosome. The test can be described thus: Determination of molecular target (ribosome by default). The test is classed as biochemical, Pseudomonas aeruginosa. The note with it: no accessory protein inhibited. The procedure:
Nitrocellulose binding assays were used to determine inhibition of GDP exchange by EF-Tu as previously described in Bullard et al. “Effects of domain exchanges between Escherichia coli and mammalian mitochondrial EF-Tu on interactions with guanine nucleotides, aminoacyl-tRNA and ribosomes” 1999, Biochim. Biophys. Acta 1446:102-114, which is incorporated herein by reference, with the exception that the enzyme (1 μM) was pre-incubated with 132 μM compound for 15 min prior to the addition of [^3H]GDP. EF-Ts stimulates the exchange of GDP bound by EF-Tu. The ability of compounds to inhibit EF-Ts stimulation of GDP exchange by EF-Tu was measured in assays as described for EF-Tu/GDP exchange with the exceptions that EF-Ts was present at 0.05 μM and the time for the reaction was decreased from 30 min to 30 sec.
Assays for ribosome-dependent GTP hydrolysis by EF-G were carried out in 50 μl reactions containing: 50 mM Tris-HCl (pH 7.5), 10 mM MgCl2, 70 mM NH4Cl, 1 mM dithiothreitol (DTT), 1.8 mM GTP, 0.4 μM P. aeruginosa ribosomes and 0.2 μM EF-G. Final concentrations of compounds in the assays were 132 μM. The amount of GTPase activity was determined by measurement of the amount of Pi liberated using a colorimetric GTPase assay kit (Novus Biologicals) per manufacturer's directions.

Test [2] relates to E. coli tolC mutant. The test can be described thus: Broth microdilution MIC. The note with it: Escherichia coli, read-out: MIC E. coli tolC (efflux). The test is classed as cell-based.
Test [3] has as its system Enterococcus faecalis (ATCC 29212). The test can be described thus: Broth microdilution MIC. It counts as cell-based. Background: Broth dilution looks for growth in wells or tubes with falling amounts of substance.
The subject of test [4] is Staphylococcus aureus (ATCC 29213). The test can be described thus: Broth microdilution MIC. The test is classed as cell-based. The note with it: ATCC29213, read-out: MIC S. aureus.
Test [5] concerns Moraxella catarrhalis (ATCC 25238). The test can be described thus: Broth microdilution MIC. It counts as cell-based. Conditions: ATCC25238.
Test [6] has as its system H. influenzae. The test can be described thus: Time-kill experiments, Gram (−). Conditions: four-times the MIC, 0 to 24 hours.
Method: (§1) Time-kill experiments were performed according to the CLSI guidelines M26-A. H. influenzae (ATCC 49766), E. faecalis ATCC 29212, and Staphylococcus aureus (ATCC 29213) were from the American Type Culture Collection (Manassas, Va.). Growth media were Brain Heart Infusion and Trypticase Soy Broth from Remel (Lenexa, Kans.). For the experiments, 10 mL of broth medium was inoculated with 0.1 mL of a fresh overnight culture and grown at 35° C. with shaking (200 rpm) for 2-3 hours. Pre-warmed flasks containing 10 mL of medium alone or 10 mL of medium containing a test compound at 4×MIC were then inoculated with 0.1 mL of the exponentially growing cultures. Samples were removed at 0, 2, 4, 6, and 24 h, and serial dilutions were plated on blood agar to allow for colony enumeration and calculation of the live cell density.
(§2) Time-kill experiments were performed according to the CLSI guideline M26-A to determine the efficacy against both Gram (+) and a Gram (−) organisms. […] The Gram (+) bacteria used was either E. faecalis or S. aureus, while the Gram (−) bacteria was H. influenzae. […] The compounds were tested in these assays at four-times the MIC and between 0 and 24 hours.
For test [7], the system named is E. coli (ATCC 25922). The test can be described thus: Broth microdilution MIC. It counts as cell-based. Conditions: Escherichia coli.
Test [8] concerns Pseudomonas aeruginosa hypersensitive strain (ATCC 35151). The test can be described thus: Broth microdilution MIC. The note with it: ATCC35151, read-out: MIC P. aeruginosa (hypersensitive). The test is classed as cell-based.
Test [9] relates to P. aeruginosa aminoacylation/translation (A/T) protein synthesis system (ribosomes, PheRS, EF-Tu, EF-Ts, EF-G). The test can be described thus: aminoacylation/translation (A/T) scintillation proximity assay. The test is classed as biochemical, Pseudomonas aeruginosa. The note with it: all P. aeruginosa components. The method, then: A scintillation proximity assay (SPA) was developed using P. aeruginosa components for the aminoacylation/translation (A/T) assay as described in Ribble et al. The complete assay (50 μl) contained 50 mM Tris-HCl (pH 7.5), 25 mM KCl, 10 mM MgCl2, 0.03 mM spermine, 1.5 mM ATP, 0.5 mM GTP, 40 μM [^3H]Phenylalanine (Phe) (75 cpm/pmol) and 0.3 mg/ml polyU mRNA. To maintain constant levels of ATP and GTP the assay contained a nucleotide regeneration system composed of 4 mM phosphoenolpyruvate (PEP) and 0.025 Units/μl pyruvate kinase (PK). The concentration of ribosomes and proteins in the assay were as follows: ribosome (0.2 μM), PheRS (0.1 μM), EF-Tu (1 μM), EF-Ts (0.05 μM) and EF-G (0.2 μM). These concentrations were arrived at through sequential rounds of optimization: each concentration represents the concentration just below the saturation point for each component of the reaction in the titration.
The screening reactions were carried out in 96 well microtiter plates (Costar). Test compounds were equilibrated by addition of 33 μl of the protein/substrate mix (without tRNA) to 2 μl of chemical compound (3.2 mM) dissolved in 100% DMSO. […] Reactions were stopped by the addition of 5 μl of 0.5 M EDTA. 200 μg of SPA beads (RNA Binding Beads (YSI), Perkin Elmer) in 150 μl of 300 mM citrate buffer (pH 6.2) were added. The plates were analyzed using a 1450 Microbeta (Jet) liquid scintillation and luminescence counter (Wallac). Assays to determine IC50 values were as described above with the test compounds serially diluted from 200 μM to 0.4 μM. The concentration ranges of antibiotics as controls were as follows: spiramycin (0.02 μM to 20.0 μM), tylosin (0.02 μM to 20.0 μM), and fusidic acid (4 μM to 512 μM).
Background: In a scintillation proximity assay essentially only radioactivity close to the scintillant gives light.

In test [10] the test system is Streptococcus pneumonia (ATCC 49619). The test can be described thus: Broth microdilution MIC. It counts as cell-based. The note with it: Streptococcus pneumoniae.
The test system of test [11] is Pseudomonas aeruginosa (ATCC 47085). The test can be described thus: Broth microdilution MIC. The test is classed as cell-based.
In test [12] the test system is Haemophilus influenzae (ATCC 49766). The test can be described thus: Broth microdilution MIC. It counts as cell-based. Conditions: ATCC49766.
Test [13] addresses P. aeruginosa PheRS (Pseudomonas aeruginosa, UniProt Q9I0A3+Q9I0A4). The test can be described thus: PheRS tRNA aminoacylation SPA assay. It counts as biochemical. The note with it: for Inhibition of Phenylalanyl-tRNA synthetase (PheRS), target found: 132 μM compound. The procedure:
SPA assays to determine inhibition of PheRS by chemical compounds were as described in Bullard et al. “Expression and characterization of a human mitochondrial phenylalanyl-tRNA synthetase” 1999, J. Mol. Biol. 288:567-577, which his incorporated herein by reference and in Ribble et al. Exceptions were that the enzyme mix was pre-incubated with 132 μM compound for 15 min prior to addition of tRNA. The reactions were stopped by the addition of 5 μl of 0.5 M EDTA. 400 μg of SPA beads (Ysi poly-L-lysine coated beads, Perkin Elmer) in 150 μl of 300 mM citrate buffer (pH 2.0) were added and the plates were analyzed as above.

Test [14] deals with Gram (+) bacteria (E. faecalis or S. aureus). The test can be described thus: Time-kill experiments, Gram (+). Conditions: four-times the MIC, 0 to 24 hours.
Method: as §1, §2
[15] abbreviates: ATCC29212, ATCC 29212, read-out: MIC E. faecalis.
The mark [16] stands for this setting: ATCC25922, ATCC 25922, read-out: MIC E. coli.
[17] abbreviates: ATCC49619, ATCC 49619, read-out: MIC S. pneumo.
Where [18] appears, read: ATCC47085, ATCC 47085, read-out: MIC P. aeruginosa.

These results are taken from patent US20160220510A1, “ANTIBIOTIC COMPOUNDS THAT INHIBIT BACTERIAL PROTEIN SYNTHESIS” (The Board of Regents of the University of Texas System, priority 2015, published 2016).

In brackets after ≈: the same amount, converted by molar mass. Where a name gives a salt, the structure may show the parent alone. Read-outs that look alike come from different tables or passages of the source.

Sequence of P. aeruginosa PheRS (Q9I0A3 whole entry): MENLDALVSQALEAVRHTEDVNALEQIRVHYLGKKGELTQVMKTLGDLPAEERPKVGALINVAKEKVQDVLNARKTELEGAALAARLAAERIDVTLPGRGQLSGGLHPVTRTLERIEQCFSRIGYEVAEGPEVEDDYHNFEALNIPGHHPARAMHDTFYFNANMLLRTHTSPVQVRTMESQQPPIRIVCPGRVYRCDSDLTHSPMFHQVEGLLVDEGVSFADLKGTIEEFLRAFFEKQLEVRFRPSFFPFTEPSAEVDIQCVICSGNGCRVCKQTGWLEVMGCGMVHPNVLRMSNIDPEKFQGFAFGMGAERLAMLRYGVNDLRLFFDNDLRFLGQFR
Sequence of P. aeruginosa PheRS (Q9I0A4 whole entry): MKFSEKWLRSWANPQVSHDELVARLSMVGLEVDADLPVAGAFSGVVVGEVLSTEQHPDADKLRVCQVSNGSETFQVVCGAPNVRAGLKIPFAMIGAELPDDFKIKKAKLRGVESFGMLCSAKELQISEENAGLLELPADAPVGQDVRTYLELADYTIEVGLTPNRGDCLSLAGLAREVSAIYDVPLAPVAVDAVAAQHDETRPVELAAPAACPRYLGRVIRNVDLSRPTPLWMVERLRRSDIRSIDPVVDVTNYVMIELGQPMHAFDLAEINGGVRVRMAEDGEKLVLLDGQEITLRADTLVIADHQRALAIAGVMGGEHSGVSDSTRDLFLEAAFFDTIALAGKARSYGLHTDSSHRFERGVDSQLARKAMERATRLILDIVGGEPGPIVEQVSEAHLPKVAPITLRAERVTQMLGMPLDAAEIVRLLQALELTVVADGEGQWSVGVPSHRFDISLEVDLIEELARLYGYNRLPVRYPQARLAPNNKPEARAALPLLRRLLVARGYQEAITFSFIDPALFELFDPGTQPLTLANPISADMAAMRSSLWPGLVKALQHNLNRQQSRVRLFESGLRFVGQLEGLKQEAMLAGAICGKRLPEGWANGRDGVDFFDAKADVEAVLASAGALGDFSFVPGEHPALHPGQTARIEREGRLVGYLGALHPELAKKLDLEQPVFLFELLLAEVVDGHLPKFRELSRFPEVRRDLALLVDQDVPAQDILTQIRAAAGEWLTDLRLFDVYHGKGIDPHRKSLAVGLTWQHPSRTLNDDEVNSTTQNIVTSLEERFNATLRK

Regarding `NC(N)=NN=C(/C=C/c1ccc([N+](=O)[O-])o1)/C=C/c1ccc([N+](=O)[O-])o1` [2-[1,5-bis(5-nitrofuran-2-yl)penta-1,4-dien-3-ylideneamino]guanidine hydrochloride], the “Target found: ribosomal inhibitor” value in test [1] is on record as “ribosomal inhibitor”.
For the compound `O=C(/C=C/c1ccccc1)c1ccc(O)cc1O` [Class 1, (2E)-1-(2,4-Dihydroxyphenyl)-3-phenyl-2-propen-1-one], the MIC in test [2] was above 128 µg/mL; in test [3] (ATCC29212, read-out: MIC E. faecalis), above 128 µg/mL; in test [4], 128 µg/mL (≈ 533 µM); in test [5], 64 µg/mL (≈ 266 µM); in test [7] (ATCC25922, read-out: MIC E. coli) it was above 128 µg/mL; in test [8] it was above 128 µg/mL. For the same compound, the MIC in test [10] (ATCC49619, read-out: MIC S. pneumo) was above 128 µg/mL; in test [11] (ATCC47085, read-out: MIC P. aeruginosa), above 128 µg/mL; in test [12], 32 µg/mL (≈ 133 µM). The “Time-kill mode of action against Gram (−) bacteria” value (from here on “Time-kill mode … (−) bacteria”) in test [6] is listed as “bactericidal”. Moreover, the values for the IC50 in test [9] and in test [13] were 33 µM and 37 µM, respectively. The “Inhibition of Phenylalanyl-tRNA synthetase (PheRS), target found” value (“Inhibition” below) in test [13] was “inhibit”. Moreover, the “Time-kill mode of action against Gram (+) bacteria” value (from here on “Time-kill mode … (+) bacteria”) in test [14] is on record as “bactericidal”.
With `COC(=O)c1c(C)c2c(c(C)c1O)OC(=O)c1c(C)c(Cl)c(O)c(Cl)c1O2` [Class 2, Methyl 2,4-dichloro-3,8-dihydroxy-1,6,9-trimethyl-11-oxo-11H-dibenzo[b,e][1,4]dioxepine-7-carboxylate], the MIC in test [2] is 16 µg/mL (≈ 38.7 µM); in test [3] (setting [15]), 8 µg/mL (≈ 19.4 µM); in test [4] it was 128 µg/mL (≈ 310 µM); in test [5] it was 1 µg/mL (≈ 2.42 µM); in test [7] (setting [16]) it was above 128 µg/mL; in test [8], 8 µg/mL (≈ 19.4 µM). The figures for the MIC in test [10] (setting [17]), in test [11] (setting [18]) and in test [12] were 64 µg/mL (≈ 155 µM), 128 µg/mL (≈ 310 µM) and 32 µg/mL (≈ 77.4 µM), respectively. Further, the “Time-kill mode … (−) bacteria” value in [6] was “bacteriostatic”. Further, the IC50 worked out at 59 µM in [9] and 9.8 µM in [13]. Also, in test [13], the “Inhibition” value is on record as “inhibit”. In addition, the “Time-kill mode … (+) bacteria” value in test [14] is “bacteriostatic”.
Turning to `O=C(N/N=C/c1ccc([N+](=O)[O-])o1)c1cc([N+](=O)[O-])cc([N+](=O)[O-])c1O` [Class 4, N-[(1E)-2-(5-nitro(2-furyl))-1-azavinyl](2-hydroxy-3,5-dinitrophenyl)carboxamide], the MIC in test [2] was 2 µg/mL (≈ 5.48 µM); in [3] (setting [15]), 128 µg/mL (≈ 350 µM); in test [4] it was 32 µg/mL (≈ 87.6 µM); in test [5], 32 µg/mL (≈ 87.6 µM); in test [7] (setting [16]) it was above 128 µg/mL; in test [8], 32 µg/mL (≈ 87.6 µM). Besides, the MIC in test [10] (setting [17]) stood at 128 µg/mL (≈ 350 µM); in test [11] (setting [18]), 32 µg/mL (≈ 87.6 µM); in test [12] it was 32 µg/mL (≈ 87.6 µM). Besides, the “Time-kill mode … (−) bacteria” value in test [6] was “bacteriostatic”. Besides, the IC50 in test [9] worked out at 50.2 µM; in test [13], 40 µM. In addition, the “Time-kill mode … (+) bacteria” value in test [14] was “bacteriostatic”.
As for `NC(N)=NN=C(/C=C/c1ccc([N+](=O)[O-])o1)/C=C/c1ccc([N+](=O)[O-])o1` [Class 5, 2-[1,5-bis(5-nitrofuran-2-yl)penta-1,4-dien-3-ylideneamino]guanidine hydrochloride], the MIC in test [2] is 2 µg/mL; in test [3] (setting [15]), 128 µg/mL; in [4], 16 µg/mL; in [5] it was 64 µg/mL; in test [7] (setting [16]), above 128 µg/mL; in test [8] it was 4 µg/mL. Besides, the MIC in test [10] (setting [17]) is 32 µg/mL; in test [11] (setting [18]) it was 128 µg/mL; in test [12], 16 µg/mL. Besides, the “Time-kill mode … (−) bacteria” value in test [6] is on record as “bactericidal”. Also, it took 27.5 µM to reach half-maximal inhibition in [9] (IC50). For the same compound, in [14], the “Time-kill mode … (+) bacteria” value is “bactericidal”.
For `Cc1cc(C)nc(NC(=N)Nc2ccc(OCc3ccc(Cl)cc3)cc2)n1` [Class 6, (4,6-dimethylpyrimidin-2-yl)[({4-[(4-chlorophenyl)methoxy]phenyl}amino)iminomethyl]amine], the MIC in test [2] is 16 µg/mL (≈ 41.9 µM); in test [3] (setting [15]), 16 µg/mL (≈ 41.9 µM); in test [4], 32 µg/mL (≈ 83.8 µM); in test [5], 64 µg/mL (≈ 168 µM); in [7] (setting [16]), 64 µg/mL (≈ 168 µM); in test [8], 16 µg/mL (≈ 41.9 µM). In addition, the MIC in test [10] (setting [17]) is 32 µg/mL (≈ 83.8 µM); in test [11] (setting [18]), 64 µg/mL (≈ 168 µM); in test [12], 32 µg/mL (≈ 83.8 µM). In addition, in test [1], the “Target found: ribosomal inhibitor” value is listed as “ribosomal inhibitor”. For the same compound, the “Time-kill mode … (−) bacteria” value in [6] is reported as “bactericidal”. In addition, 25.8 µM corresponded to half-maximal inhibition in test [9] (IC50). In addition, in [14], the “Time-kill mode … (+) bacteria” value was “bactericidal”.
Consider `O=C(N/N=C/c1ccc([N+](=O)[O-])o1)c1cc([N+](=O)[O-])cc([N+](=O)[O-])c1O` [N-[(1E)-2-(5-nitro(2-furyl))-1-azavinyl](2-hydroxy-3,5-dinitrophenyl)carboxamide], for which the “Inhibition” value in test [13] is “inhibit”.

Broadly, the IC50 is the point on the concentration scale where inhibition reaches its midpoint. A lower IC50 goes with greater potency.
